In article PMC7658073 (Clinical Pharmacokinetics, 2020):

Assays:
UGT1A6 = target: T1, UGT1A6 (Homo sapiens, UniProt P19224); experiment: Inhibitory potency towards UGT isoforms: UGT1A6; format: in vitro ADME
T1 sequence (P19224 27-532): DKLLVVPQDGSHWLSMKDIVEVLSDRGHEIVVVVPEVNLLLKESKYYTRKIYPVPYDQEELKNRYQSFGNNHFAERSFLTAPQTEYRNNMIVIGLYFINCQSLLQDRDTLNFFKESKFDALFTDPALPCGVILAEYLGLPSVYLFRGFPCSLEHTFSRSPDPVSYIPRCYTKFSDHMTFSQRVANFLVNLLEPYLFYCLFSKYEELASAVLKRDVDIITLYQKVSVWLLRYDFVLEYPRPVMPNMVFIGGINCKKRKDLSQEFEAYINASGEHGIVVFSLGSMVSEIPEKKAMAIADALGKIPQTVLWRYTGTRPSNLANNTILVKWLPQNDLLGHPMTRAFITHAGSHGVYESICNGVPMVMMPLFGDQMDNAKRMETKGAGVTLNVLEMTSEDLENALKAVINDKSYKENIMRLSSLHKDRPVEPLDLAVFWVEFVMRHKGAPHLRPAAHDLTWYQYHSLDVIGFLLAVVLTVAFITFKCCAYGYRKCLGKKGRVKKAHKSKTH

MATE1 = target: T2, MATE1 (Homo sapiens, UniProt Q96FL8); experiment: Inhibitory potency towards MATE1; format: in vitro ADME
T2 sequence (Q96FL8 1-570): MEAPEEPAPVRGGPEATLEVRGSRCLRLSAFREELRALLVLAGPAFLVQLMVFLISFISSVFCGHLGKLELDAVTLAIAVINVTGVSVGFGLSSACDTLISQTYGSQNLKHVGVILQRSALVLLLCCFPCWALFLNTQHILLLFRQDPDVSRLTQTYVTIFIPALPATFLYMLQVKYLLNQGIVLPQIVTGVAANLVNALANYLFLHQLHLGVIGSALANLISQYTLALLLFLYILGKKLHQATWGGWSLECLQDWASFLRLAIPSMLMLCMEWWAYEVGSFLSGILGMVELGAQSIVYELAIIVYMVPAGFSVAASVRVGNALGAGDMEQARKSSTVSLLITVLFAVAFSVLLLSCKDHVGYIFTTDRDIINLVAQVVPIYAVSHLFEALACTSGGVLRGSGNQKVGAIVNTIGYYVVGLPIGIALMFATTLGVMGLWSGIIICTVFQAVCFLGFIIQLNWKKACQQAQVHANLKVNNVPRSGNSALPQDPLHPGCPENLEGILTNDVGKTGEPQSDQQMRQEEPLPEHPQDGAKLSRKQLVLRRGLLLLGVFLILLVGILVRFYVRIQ

UGT1A9 = target: T3, UGT1A9 (Homo sapiens, UniProt O60656); experiment: Inhibitory potency towards UGT isoforms: UGT1A9; format: in vitro ADME
T3 sequence (O60656 26-530): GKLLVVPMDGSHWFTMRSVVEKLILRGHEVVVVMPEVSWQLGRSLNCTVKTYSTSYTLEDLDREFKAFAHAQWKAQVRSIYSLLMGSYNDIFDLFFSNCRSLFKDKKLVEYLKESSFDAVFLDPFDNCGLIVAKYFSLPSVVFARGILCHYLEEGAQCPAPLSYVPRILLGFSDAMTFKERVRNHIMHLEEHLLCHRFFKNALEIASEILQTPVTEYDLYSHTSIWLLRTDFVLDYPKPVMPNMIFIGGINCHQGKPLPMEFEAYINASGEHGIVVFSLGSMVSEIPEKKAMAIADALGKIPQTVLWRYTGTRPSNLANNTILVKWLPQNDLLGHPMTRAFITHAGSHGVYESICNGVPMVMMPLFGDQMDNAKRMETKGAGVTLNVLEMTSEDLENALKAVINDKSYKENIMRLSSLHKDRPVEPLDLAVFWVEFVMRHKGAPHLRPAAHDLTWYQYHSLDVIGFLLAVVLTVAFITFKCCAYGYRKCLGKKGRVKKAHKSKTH

OAT1 = target: T4, OAT1 (Homo sapiens, UniProt Q4U2R8); experiment: Inhibitory potency towards OAT1; format: in vitro ADME
T4 sequence (Q4U2R8 1-563): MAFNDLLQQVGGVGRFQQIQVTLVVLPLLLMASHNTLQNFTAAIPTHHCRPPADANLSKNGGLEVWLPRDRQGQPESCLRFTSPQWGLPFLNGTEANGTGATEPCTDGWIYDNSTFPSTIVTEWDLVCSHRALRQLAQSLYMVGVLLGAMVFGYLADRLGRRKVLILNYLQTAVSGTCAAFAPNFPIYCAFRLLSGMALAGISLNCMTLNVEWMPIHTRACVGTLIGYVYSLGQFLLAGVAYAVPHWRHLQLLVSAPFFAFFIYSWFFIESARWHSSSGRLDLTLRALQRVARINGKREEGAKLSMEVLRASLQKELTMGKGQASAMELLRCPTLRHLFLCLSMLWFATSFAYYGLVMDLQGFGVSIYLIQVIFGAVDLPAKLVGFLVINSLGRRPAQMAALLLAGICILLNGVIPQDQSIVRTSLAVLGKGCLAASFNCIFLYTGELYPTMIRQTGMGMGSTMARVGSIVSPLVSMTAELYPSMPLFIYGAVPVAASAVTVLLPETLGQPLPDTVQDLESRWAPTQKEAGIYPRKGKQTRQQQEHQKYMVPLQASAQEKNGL

[1] = Phase I DDI study with mefenamic acid; format: in vivo, human
[2] = with mefenamic acid vs vericiguat 2.5 mg SD alone, fed

An IC50 (UGT1A6) of over 50 µM, an IC50 (MATE1) of over 10 µM and an IC50 (UGT1A9) of 10.6 µM were found for `COC(=O)Nc1c(N)nc(-c2nn(Cc3ccccc3F)c3ncc(F)cc23)nc1N` [Vericiguat] in this work. The Ki (UGT1A9) was 6.6 µM, the IC50 (OAT1) was over 5 µM and the “Increase in AUC of vericiguat” value ([1]; inhibition of UGT1A9 by mefenamic acid) was 20%. For the same molecule, the “AUC of vericiguat, point estimate of treatment ratio” value [1, 2] was 1.197 and the “Cmax of vericiguat, point estimate of treatment ratio” value [1, 2] was 0.967.
